Results on 4 compounds are retold here after patent US9700540B2, “Dronedarone for use in leishmaniasis, formulations and associations for use in leishmaniasis” (SANOFI, priority 2012, dated 2017).

Where only a bound is given, the exact number is not on record here.

Series [1] has as its system Axenic amastigotes of L. amazonensis. Description: Growth inhibition of axenic amastigotes of L. amazonensis (SYBRGREEN DNA quantification). Format: cell-based, Leishmania amazonensis. To be noted: 72 hours of contact. The text has this:
(§1) A strain of Leishmania amazonensis (MHOM/BR/73/M2269) were used. Dronedarone hydrochloride and meglumine antimoniate were supplied by Sanofi. Amphotericin B (désoxycholate) and miltefosine were bought at Sigma-Aldrich.
1/Axenic amastigotes of L. amazonensis (isolated parasites)
(§2) The first cellular model which cultivates in a medium based on M199, allows defining the intrinsic activity of a substance on the parasite itself while the second cellular model integrates the capacity of the substance to cross the membrane of the macrophage and that of the phagolysosome. The used macrophages are cells RAW 264.7, which cultivate in medium based on DMEM with 10% of foetal serum of veal. • Determination of the IC50 of each of the molecules
(§3) Solutions of dronedarone in the DMSO, meglumine antimoniate and miltefosine in the water, and amphotericin B in an isotonic glucose solution (G5) were prepared before every experiment. The evaluations in vitro were the object of three independent experiments duplicate. The assays were realized by quantifying the parasitic DNA with the SYBRGREEN as described by Audisio and al. (Eur. J. Med. Chem., 52: 44-50, 2012) as well as by qPCR for intramacrophagic amastigotes with amplification of the alpha-tubuline of the parasite. The results obtained with both methods are similar.

Series [2] has as its system Intramacrophagic amastigotes of L. amazonensis. The series is described as follows: Growth inhibition of intramacrophagic amastigotes of L. amazonensis in RAW 264.7 (SYBRGREEN, qPCR). The class given is cell-based, Leishmania amazonensis.
Source text: as §1
2/Intramacrophagic amastigotes of L. amazonensis (parasites hosted in macrophages, as found in dermis, during the cutaneous Leishmaniosis infection).
as §2, §3

The test system of series [3] is macrophages (cells RAW 264.7). Description: Cytotoxicity on macrophages, Blue Trypan. The class given is cell-based, human. As to the method: (§4) Study of the cytotoxicity on macrophages (cells RAW 264.7)
(§5) The non-toxic maximal concentration (CMA) was determined by the technique to the Blue Trypan according to has method described in Audisio and al. (Eur. J. Med. Chem., 52: 44-50, 2012).

In series [4] the test system is axenic amastigotes of L. donovani. Description: Growth inhibition of axenic amastigotes of L. donovani. Format: cell-based. To be noted: Leishmania donovani, 72 hours. The source says: (§6) Strains of Leishmania donovani (MHOM/ET/67/HU3) and Leishmania major (MHOM/SU/73/5-ASKH) were used for this study.
(§7) 1/Axenic amastigotes of L. donovani and L. major (isolated parasites)
(§8) The model of axenic amastigotes is cultivated in a medium based on M199 and allows defining the intrinsic activity of a substance on the parasite itself while the model of intramacrophagic amastigotes integrates the capacity of the substance to cross the membrane of the macrophage and that of the phagolysosome.
(§9) The solutions of dronedarone in the DMSO, meglumine antimoniate and miltefosine in the water, were prepared before every experiment. The evaluations in vitro were the object of three independent experiments.
(§10) The assays were realized by quantifying the parasitic DNA with the SYBRGREEN as described by Audisio and al. (Eur. J. Med. Chem., 52: 44-50, 2012).

In series [5] the test system is L. major's axenic amastigotes. The series is described as follows: Growth inhibition of axenic amastigotes of L. major. The class given is cell-based, Leishmania major. To be noted: 72 hours.
Source text: as §6, §7, §8, §9, §10

The subject of series [6] is intramacrophagic amastigotes of L. donovani. The series is described as follows: Growth inhibition of intramacrophagic amastigotes of L. donovani in RAW 264.7. The class given is cell-based, Leishmania donovani.
Source text: as §6
(§11) 2/Intramacrophagic amastigotes of L. donovani and L. major (parasites hosted in macrophages, as found in dermis, during the cutaneous Leishmaniosis infection).
as §8
(§12) The used macrophages are cells RAW 264.7, which cultivate in a medium based on DMEM with 10% of foetal serum of veal.
as §9, §10

The subject of series [7] is L. major's intramacrophagic amastigotes. Description: Growth inhibition of intramacrophagic amastigotes of L. major in RAW 264.7. Format: cell-based, Leishmania major.
Source text: as §6, §11, §8, §12, §9, §10

Series [8] is described as follows: Cytotoxicity on macrophages, Blue Trypan. Format: cell-based, human. As to the method:
as §4, §5

The test system of series [9] is Leishmania amazonensis strains resistant to meglumine antimoniate. Description: Chemosensitivity of L. amazonensis strains resistant to meglumine antimoniate, promastigote form. The class given is cell-based. As to the method:
In vitro study on Leishmania amazonensis strains resistant to meglumine antimoniate (Glucantime®)
On Leishmania amazonensis strains resistant to_meglumine antimoniate (IC50=200 mM) under promastigote form, chemosensitivity to dronedarone is similar that one observed on strains that are not resistant to meglumine antimoniate (active principle of Glucantime®).

[10] abbreviates: RAW 264.7 macrophages, Blue Trypan.
Setting [11] is: Leishmania amazonensis, RAW264.7, RAW 264.7, 72 hours of contact.
[12] abbreviates: Leishmania donovani, RAW264.7, 72 hours.
The mark [13] stands for this setting: Leishmania major, RAW264.7, 72 hours.

For the compound `C[C@@H]1[C@H](O)[C@@H](C)/C=C/C=C/C=C/C=C/C=C/C=C/C=C/[C@H](O[C@@H]2O[C@H](C)[C@@H](O)[C@H](N)[C@@H]2O)C[C@@H]2O[C@](O)(C[C@@H](O)C[C@@H](O)[C@H](O)CC[C@@H](O)C[C@@H](O)CC(=O)O[C@H]1C)C[C@H](O)[C@H]2C(=O)O` [amphotericin B], the IC50 in [1] worked out at 0.031 ± 0.002 µM; in series [2] (RAW 264.7, 72 hours of contact) it was 0.047 ± 0.005 µM. The “non-toxic maximal concentration (CMA)” value in series [3] (setting [10]) came out at 6.25 µM.
With `CCCCCCCCCCCCCCCCOP(=O)([O-])OCC[N+](C)(C)C` [miltefosine], the 50% inhibitory concentration (IC50) in [1] (Leishmania amazonensis) worked out at 0.9 ± 0.2 µM; in [2] (setting [11]) it was 1.87 ± 0.032 µM; in series [4], 13 ± 1.25 µM; in series [5] (Leishmania major), 5.57 ± 1.5 µM; in series [6] (setting [12]) it was 0.88 ± 0.1 µM; in [7] (setting [13]), 0.72 ± 0.11 µM. The “non-toxic maximal concentration (CMA)” value in series [3] (human) stood at 50 µM.
Turning to `CCCCc1oc2ccc(NS(C)(=O)=O)cc2c1C(=O)c1ccc(OCCCN(CCCC)CCCC)cc1` [dronedarone, 2-n-Butyl-3-[4-(3-di-n-butylaminopropoxy)benzoyl]-5-methylsulphonamidobenzofuran], the half-maximal inhibitory concentration (IC50) in [1] (Leishmania amazonensis) was determined as 0.34 ± 0.06 µM; in series [2] (setting [11]) it was 0.5 ± 0.22 µM; in series [4], 47.4 ± 6.27 µM; in series [5] (Leishmania major), 2.55 ± 0.51 µM; in series [6] (setting [12]), 1.67 ± 0.1 µM; in [7] (setting [13]), 1.32 ± 0.12 µM. The compound also showed a half-maximal cytotoxic concentration (CC50) in series [8] above 12.5 µM. Also, the “non-toxic maximal concentration (CMA)” value in series [3] (human) worked out at 12.5 µM. Also, the “chemosensitivity compared with strains not resistant to meglumine antimoniate” value in series [9] is “similar”. Besides, the entries for the “therapeutic index (CC50/IC50)” value in series [6] and in series [7] were above 7 and above 9, respectively.
As for meglumine antimoniate, the concentration for half-maximal inhibition (IC50) in series [1] was 908 ± 159 µM; in series [2] (RAW 264.7, 72 hours of contact), 134 ± 10.4 µM; in [5], above 1000 µM; in series [6] (72 hours), 390 ± 40.5 µM; in [7] (72 hours), 348 ± 79.9 µM. For the same compound, the “non-toxic maximal concentration (CMA)” value in [3] (setting [10]) was above 200 µM.
